Consider 23 molecules from patent publication US7425579B2, “Methods for inhibiting activity of polyamine transporters” (Universite Laval, priority 1998, dated 2008).

As usually defined, the Ki is the equilibrium dissociation constant of an inhibitor or competing ligand from its target. For orientation: Km means the concentration of substrate that gives half-maximal velocity.

Test [1] has as its system mammalian polyamine carrier. The test can be described thus: Determination of polyamine uptake activity: inhibition of diamine and polyamine transport in T-47D cells. The test is classed as cell-based, human. As to conditions: for Ki: mean±SD; for Km: substrate itself. On the procedure:
The rate of diamine and polyamine transport was determined in T-47D and ZR-75-1 cells incubated in serum-free RPMI 1640 medium as previously described (U.S. Pat. No. 6,083,496; Covassin et al. (1999) Bioorg. Med. Chem. Lett. 9, 1709-1714), using 20 μM [^3H]putrescine (179 Ci/mol), 5 μM [^3H]spermidine (246 Ci/mol) and 3 μM [^14C]spermine (300-400 mCi/mol) respectively, as substrates for a 20-min assay period. Uptake activity was expressed per amount of DNA as fluorometrically determined using 3,5-diaminobenzoic acid (Simard et al. (1990) Endocrinology 126, 3223-3231). Kinetic parameters of polyamine transport inhibition for the transport antagonists were determined by Lineweaver-Burke analysis of uptake activity in the presence of 0.1 μM [^3H]putrescine, 0.03 μM [^3H]spermidine, and 0.01 μM [^14C]spermine plus increasing concentrations of nonradioactive substrate. For competitive inhibitors, Ki values were estimated by iterative curve fitting for sigmoidal equations describing transport rates in the presence of increasing concentrations of antagonist, using the Cheng-Prusoff equation for competitive inhibition (U.S. Pat. No. 6,083,496).
The ability of BSD and BNSD compounds to inhibit uptake of the main natural substrates of the mammalian polyamine carrier, namely putrescine, spermidine and spermine, was evaluated using T-47D human breast cancer cells (Table 1).
Data are presented as the mean±SD of at least two independent determinations of IC50 values, each based on triplicate determinations of uptake velocity at increasing inhibitor concentrations.
The potency of the polyamines and their xylylated dimers as competitive inhibitors of spermidine transport was evaluated in the T-47D human breast cancer cell line (Table 2).

The test system of test [2] is MDA-MB-231 human breast cancer xenograft. Nature of the test: MDA-MB-231 human breast cancer xenograft in nude mice. It is filed as in vivo, immunodeficient CD-1 mice. As to conditions: 39 d. Here is the method:
In particular, the mice have been treated with the following compounds: BNSD-X (1% w/v) (●), 0.3 (w/v) DFMO (□), 0.3% DFMO+BNSD-X (▪), 1% (w/v) DFMO (Δ), or 1% DFMO+BNSD-X (▴). Drugs were dissolved in drinking water which was given ad libitum to the animals. Control mice (∘) received distilled water only;
In particular, the mice have been treated with the following compounds: BNSD-X (1% w/v) (●), 0.3 (w/v) DFMO (□), 0.3% DFMO+BNSD-X (▪), 1% (w/v) DFMO (Δ), or 1% DFMO+BNSD-X (▴). Drugs were dissolved in drinking water which was given ad libitum to the animals. Control mice (∘) received distilled water only; and
In particular, these compounds are BNSD-X (1% w/v), 0.3 (w/v) DFMO, 0.3% DFMO+BNSD-X, 1% (w/v) DFMO, or 1% DFMO+BNSD-X Drugs were dissolved in drinking water which was given ad libitum to the animals. Control mice received distilled water only.
For human xenograft experiments, athymic CD-1 mice were inoculated with 5×10^6 MDA-MB-231 human breast cancer cells (grown in tissue culture incubators to mid-exponential phase) in both sides of the inguinal mammary fat pad. After ˜2 weeks, when the tumor had reached a diameter ˜4 mm (as measured with a caliper), control mice were paired to treated ones in accordance with tumor volume (time zero). Animals were allowed free access to water containing 0, 0.3 or 1% DFMO (w/v), plus or minus 1% (w/v) BNSD-X (7 mice/experimental group). Tumor volume (V) was measured twice weekly with a caliper in 2 dimensions using the approximation V=(L×w^2)/2, where L is the length and w is the width of the xenograft (Bandyopadhyay et al., (2002) Cancer Res. 62:4690-4695). Animals were sacrificed after 39 d (i.e. when tumor size in control mice had reached about 500 mm^3). Mammary tumors were be excised and weighed.
The efficacy of BNSD-X as a chemotherapeutic agent was assessed in the MDA-MB-231 model of human breast cancer xenograft in the nude mouse, a model which is known to be sensitive to polyamine depletion by DFMO (Weeks et al., (2000) Exp Cell Res. 261:293-302). For that purpose, MDA-MB-231 cells were injected in the left and right mammary fat pads of immunodeficient CD-1 mice. Mice were then allowed to drink either BNSD-X at the optimal concentration (1%, w/v), as well as DFMO at either 0.3% or 1% (w/v) plus or minus 1% BNSD-X for 39 days before sacrificing the animals and measuring total final tumor mass (FIG. 12-14). The BNSD-X solution alone or with 0.3% DFMO led to a slight (˜7%) reduction of body weight, which was attenuated by the addition of 1% DFMO (FIG. 13) However, this effect of body weight could largely be accounted on the decreased tumor burden in the BNSD-X treated animals (FIG. 14). […]
On the technique in general: Xenograft models place foreign cells or tissue in a host animal.

The next test concerns CHO-K1 cells. The test can be described thus: Determination of intracellular polyamine contents in CHO-K1 cells. It is filed as cell-based, Chinese hamster. Here is the method: At the indicated time, cells were harvested for the determination of putrescine (A), spermidine (B) and spermine contents (C). Data are presented as the mean±SD for triplicate cultures from one representative experiment; […] At the indicated time intervals, medium was removed, cell monolayers were rinsed twice: with 10 ml of ice-cold Ca^2+/Mg^2+-free phosphate-buffered saline (PBS) (2.7 mM KCl, 1.5 mM KH2PO4, 8.1 mM Na2HPO4, 137 mM NaCl), and cells were harvested by low-speed centrifugation (2400 g for 5 min at 4° C.). […] Polyamine content was then determined by ion-pair reverse phase HPLC with fluorometric detection after post-column derivatization with o-phthaldialdehyde as described (U.S. Pat. No. 6,083,496). […] Pat. No. 6,083,496).

Setting [3] is: T-47D breast cancer cells, read-out: Ki, inhibition of [3H]putrescine uptake.
The mark [4] stands for this setting: T-47D breast cancer cells, read-out: Ki, inhibition of [3H]spermidine uptake.
Where [5] appears, read: T-47D breast cancer cells, read-out: Ki, inhibition of [14C]spermine uptake.
Setting [6] is: T-47D human breast cancer cells, calculated from IC50, read-out: Ki for the inhibition of spermidine transport (Table 2).

Where two headings read alike, the source gives them in different places.

Regarding `NCCCN(CCCN)CCN(CCCN)CCCN` [18a], the Ki was 1200 ± 200 nM in test [1] (setting [3]), 17300 ± 1400 nM in test [1] (setting [4]) and 20400 ± 6900 nM in test [1] (setting [5]).
For `NCCCCN(CCCN)CCN(CCCN)CCCCN` [18b] the same measures were 650 ± 70 nM, 3000 ± 500 nM and 5900 ± 1100 nM.
For `NCCCN(CCCN)CCCCN(CCCN)CCCN` [20a], the inhibition constant Ki in test [1] (setting [3]) worked out at 720 ± 200 nM; in test [1] (setting [4]), 4900 ± 100 nM; in test [1] (setting [5]), 4300 ± 700 nM.
Regarding `NCCCCN(CCCN)CCCCN(CCCN)CCCCN` [20b], the Ki in test [1] (setting [3]) amounted to 520 ± 60 nM; in test [1] (setting [4]), 2400 ± 400 nM; in test [1] (setting [5]), 6200 ± 600 nM.
`NCCCN(CCCN)CCCCCN(CCCN)CCCN` [21a]: the Ki worked out at 540 ± 110 nM in test [1] (setting [3]), 3100 ± 500 nM in test [1] (setting [4]) and 2600 ± 700 nM in test [1] (setting [5]).
On to `NCCCCN(CCCN)CCCCCN(CCCN)CCCCN` [21b], for which the Ki in test [1] (setting [3]) stood at 570 ± 100 nM; in test [1] (setting [4]), 830 ± 80 nM; in test [1] (setting [5]) it was 8000 ± 1100 nM.
For `NCCCN(CCCN)CCCCCCN(CCCN)CCCN` [22a] the same measures were 720 ± 180 nM, 2400 ± 300 nM and 820 ± 100 nM.
With `NCCCCN(CCCN)CCCCCCN(CCCN)CCCCN` [22b], the Ki in test [1] (setting [3]) worked out at 910 ± 110 nM; in test [1] (setting [4]) it was 690 ± 160 nM; in test [1] (setting [5]), 6300 ± 800 nM.
With `NCCCN(CCCN)CCCCCCCCN(CCCN)CCCN` [23a], the Ki is 660 ± 60 nM in test [1] (setting [3]), 7500 ± 1600 nM in test [1] (setting [4]) and 7000 ± 1000 nM in test [1] (setting [5]).
For `NCCCCN(CCCN)CCCCCCCCN(CCCN)CCCCN` [23b], in that order: 440 ± 70 nM, 3000 ± 200 nM and 3600 ± 700 nM.
`NCCCN(CCCN)CCCCCCCCCCN(CCCN)CCCN` [24a]: the Ki in test [1] (setting [3]) is 1600 ± 400 nM; in test [1] (setting [4]), 1500 ± 200 nM; in test [1] (setting [5]) it was 2400 ± 700 nM.
For `NCCCCN(CCCN)CCCCCCCCCCN(CCCN)CCCCN` [24b] the same measures were 140 ± 10 nM, 1200 ± 200 nM and 1900 ± 300 nM.
For `NCCCN(C/C=C/CN(CCCN)CCCN)CCCN` [25a] the same measures were 100 ± 10 nM, 1800 ± 100 nM and 1500 ± 100 nM.
For `NCCCCN(C/C=C/CN(CCCN)CCCCN)CCCN` [25b] the same measures were 270 ± 40 nM, 2000 ± 500 nM and 1600 ± 200 nM.
Take `NCCCN(CC#CCN(CCCN)CCCN)CCCN` [26a]: the inhibitory constant (Ki) in test [1] (setting [3]) was 2600 ± 400 nM; in test [1] (setting [4]), 25600 ± 4000 nM; in test [1] (setting [5]) it was 12800 ± 2200 nM.
With `NCCCCN(CC#CCN(CCCN)CCCCN)CCCN` [26b], the Ki in test [1] (setting [3]) amounted to 1900 ± 400 nM; in test [1] (setting [4]), 16900 ± 2000 nM; in test [1] (setting [5]) it was 27700 ± 3200 nM.
For `NCCCN(CCCN)Cc1cccc(CN(CCCN)CCCN)c1` [27a], in that order: 640 ± 80 nM, 3000 ± 500 nM and 5700 ± 1300 nM.
Take `NCCCCN(CCCN)Cc1cccc(CN(CCCN)CCCCN)c1` [27b]: the Ki in test [1] (setting [3]) was 190 ± 50 nM; in test [1] (setting [4]), 1600 ± 100 nM; in test [1] (setting [5]) it was 2400 ± 300 nM.
Turning to `NCCCNCCCCN(CCCN)Cc1ccc(CN(CCCN)CCCCNCCCN)cc1` [BSM-X], the “fold lower apparent Ki for spermidine uptake inhibition relative to the spermine monomer” value in test [1] (T-47D cells) is on record as 2 fold. The Ki in test [1] (setting [6]) is 1100 ± 100 nM.
On to `NCCCNCCCC(NCCCN)C(=O)NCCSSCCNC(=O)C(CCCNCCCN)NCCCN` (stereo not shown) [DESC, 2,2′-dithiobis(N-ethyl-spermine-5-carboxamide), reference compound], for which the values for the Ki in test [1] (setting [3]), in test [1] (setting [4]) and in test [1] (setting [5]) were 3100 ± 400 nM, 12600 ± 1400 nM and 15900 ± 4000 nM, respectively.
Turning to `NCCC[C@](N)(C(=O)O)C(F)F` [DFMO, α-difluoromethylornithine, reference compound], the “reduction of tumor burden” value in test [2] (DFMO alone (0.3%)) is on record as 50±6%. Further, in test [2] (DFMO alone (1%)), the “growth inhibition (tumor)” value amounted to 73±7%. In addition, the “decrease of the intracellular spermidine pool by DFMO alone” value with CHO-K1 cells (after a 24-h lag period, up to 4 days) turned out to be 80%. In the test on CHO-K1 cells (single agent), the “effect on intracellular putrescine content” value was “rapidly led to putrescine depletion”. In addition, the “effect on intracellular spermine content” value with CHO-K1 cells (up to 4 days) was “little effect on spermine content”.
Take `NCCCCN` [Putrescine, 1,4-diaminobutane, reference compound]: the Km in test [1] (T-47D breast cancer cells, read-out: Km for [3H]putrescine uptake) was 7.4 ± 1.1 µM. Further, in test [1] (setting [6]), the Ki was more than 500000 nM.
`NCCCNCCCCNCCCN` [Spermine, reference compound]: the results for the Ki in test [1] (setting [3]), in test [1] (setting [4]) and in test [1] (setting [6]) were 650 ± 120 nM, 920 ± 80 nM and 2100 ± 200 nM, respectively. In addition, the Km in test [1] (T-47D breast cancer cells, read-out: Km for [14C]spermine uptake) is 2.7 ± 0.4 µM.
